From ChEMBL document CHEMBL5241128, “Synthesis of 1-O-acyl- and 1-oxo-kamebanin analogues and their cytotoxic activity” (Bioorg Med Chem Lett, 2023)

How the values were obtained:
HCT-116 = assay: Cytotoxicity against human HCT-116 cells assessed as inhibition of cell growth; type: functional, cell-based
HL-60 = assay: Cytotoxicity against human HL-60 cells assessed as inhibition of cell growth; type: functional, cell-based

| Compound | IC50 (HCT-116) [µM] | IC50 (HL-60) [µM] |
| --- | --- | --- |
| C=C1C(=O)[C@@]23[C@H](O)C[C@@H]4C(C)(C)CC[C@H](OC(C)=O)[C@@]4(C)[C@@H]2CC[C@@H]1[C@H]3O | 13 | 5.7 |
| C=C1C(=O)[C@@]23[C@@H]4OC(C)(C)O[C@@H]2C[C@@H]2C(C)(C)CC[C@H](OC(C)=O)[C@@]2(C)[C@@H]3CC[C@@H]14 | 43 | 57 |
| C=C1C(=O)[C@@]23[C@@H]4OC(C)(C)O[C@@H]2C[C@@H]2C(C)(C)CC[C@H](OC(=O)C(C)(C)C)[C@@]2(C)[C@@H]3CC[C@@H]14 | 35 | 14 |
| C=C1C(=O)[C@@]23[C@@H]4OC(C)(C)O[C@@H]2C[C@@H]2C(C)(C)CC[C@H](O)[C@@]2(C)[C@@H]3CC[C@@H]14 | 7.6 | 7.3 |
| C=C1C(=O)[C@@]23[C@H](O)C[C@@H]4C(C)(C)CC[C@H](OC(=O)CCCCC)[C@@]4(C)[C@@H]2CC[C@@H]1[C@H]3O | 4 | 5.6 |
| C=C1C(=O)[C@@]23[C@@H]4OC(C)(C)O[C@@H]2C[C@@H]2C(C)(C)CC[C@H](OC(=O)CCCC)[C@@]2(C)[C@@H]3CC[C@@H]14 | 10 | 7.7 |
| C=C1C(=O)[C@@]23[C@@H]4OC(C)(C)O[C@@H]2C[C@@H]2C(C)(C)CCC(=O)[C@@]2(C)[C@@H]3CC[C@@H]14 | 77 | 36 |
| C=C1C(=O)[C@@]23[C@@H]4OC(C)(C)O[C@@H]2C[C@@H]2C(C)(C)CC[C@H](OC(=O)CC)[C@@]2(C)[C@@H]3CC[C@@H]14 | 6.9 | 5.7 |
| C=C1C(=O)[C@@]23[C@H](O)C[C@@H]4C(C)(C)CC[C@H](OC(=O)CC)[C@@]4(C)[C@@H]2CC[C@@H]1[C@H]3O | 9.7 | 5.9 |
| C=C1C(=O)[C@@]23[C@H](O)C[C@@H]4C(C)(C)CC[C@H](O)[C@@]4(C)[C@@H]2CC[C@@H]1[C@H]3O [KAMEBANIN] | 12 | 3.3 |
| C=C1C(=O)[C@@]23[C@H](O)C[C@@H]4C(C)(C)CC[C@H](OC(=O)C(C)(C)C)[C@@]4(C)[C@@H]2CC[C@@H]1[C@H]3O | 4.3 | 2.8 |
| C=C1C(=O)[C@@]23[C@@H]4OC(C)(C)O[C@@H]2C[C@@H]2C(C)(C)CC[C@H](OC(=O)CCC)[C@@]2(C)[C@@H]3CC[C@@H]14 | 3.9 | 7.2 |
| C=C1C(=O)[C@@]23[C@H](O)C[C@@H]4C(C)(C)CC[C@H](OC(=O)CCC)[C@@]4(C)[C@@H]2CC[C@@H]1[C@H]3O | 4.2 | 6.1 |
| COc1cc([C@@H]2c3cc4c(cc3[C@@H](O[C@@H]3O[C@@H]5CO[C@@H](C)O[C@H]5[C@H](O)[C@H]3O)[C@H]3COC(=O)[C@H]23)OCO4)cc(OC)c1O [ETOPOSIDE] | 23 | 12 |
| C=C1C(=O)[C@@]23[C@@H]4OC(C)(C)O[C@@H]2C[C@@H]2C(C)(C)CC[C@H](OC(=O)CCCCC)[C@@]2(C)[C@@H]3CC[C@@H]14 | 6.8 | 6.9 |
| C=C1C(=O)[C@@]23[C@H](O)C[C@@H]4C(C)(C)CC[C@H](OC(=O)CCCC)[C@@]4(C)[C@@H]2CC[C@@H]1[C@H]3O | 4.2 | 2 |
| C=C1C(=O)[C@@]23[C@H](O)C[C@@H]4C(C)(C)CCC(=O)[C@@]4(C)[C@@H]2CC[C@@H]1[C@H]3O | 11 | 2.2 |
